Literature values as cited in patent publication US4386074A, “LRF Antagonists” (The Salk Institute for Biological Studies, priority 1981, dated 1983).
[ ]: non-standard residue; d: D form. pGlu = O=C1CC[C@@H](C(=O)O)N1

Tested on: release of LH and other gonadotropins by the pituitary gland
Details: D-Ala6 versus Gly6 des-His2 peptide

Substance: [pGlu]WSY[dA]LRPG-NH2
- potency as inhibitor of the release of gonadotropins relative to the same peptide with Gly in the 6-position: 4 times
